Test results taken from the NIST ThermoML archive (doi:10.1016/j.fluid.2014.10.004).
± gives the expanded uncertainty stated by the source.

What was measured:
[1] = xn = mol fraction of the nth substance listed; conditions: 101.3 kPa, Liquid, Sing-around technique in a fixed-path interferometer
[2] = refractive index (Na D-line) (dimensionless); xn = mol fraction of the nth substance listed; conditions: 101.3 kPa, Liquid, Standard Abbe refractometry

ClCCCCl [1,3-dichloropropane] + C[N+](=O)[O-]
Conditions	refractive index, 298.15 K	refractive index, 308.15 K	refractive index, 318.15 K	speed of sound, 298.15 K [m/s]	speed of sound, 308.15 K [m/s]	speed of sound, 318.15 K [m/s]
[1], x1 = 0.0878	–	–	–	1303 ± 1.7	1264 ± 1.7	1225 ± 1.7
[1], x1 = 0.1939	–	–	–	1285.9 ± 1.6	1247.3 ± 1.6	1208.9 ± 1.6
[1], x1 = 0.2938	–	–	–	1273.6 ± 1.6	1235.4 ± 1.6	1197.3 ± 1.6
[1], x1 = 0.3998	–	–	–	1263.5 ± 1.5	1225.6 ± 1.5	1187.8 ± 1.5
[1], x1 = 0.5028	–	–	–	1255.9 ± 1.4	1218.2 ± 1.4	1180.7 ± 1.4
[1], x1 = 0.6154	–	–	–	1249.4 ± 1.4	1212 ± 1.4	1174.8 ± 1.4
[1], x1 = 0.7207	–	–	–	1244.7 ± 1.3	1207.5 ± 1.3	1170.5 ± 1.3
[1], x1 = 0.8326	–	–	–	1240.8 ± 1.3	1203.8 ± 1.3	1167 ± 1.3
[1], x1 = 0.9404	–	–	–	1237.9 ± 1.2	1201 ± 1.2	1164.4 ± 1.2
[1], x1 = 1	–	–	–	1236.5 ± 1.2	1199.7 ± 1.2	1163.2 ± 1.2
[2], x1 = 0.0878	1.38808 ± 0.0004	1.38325 ± 0.0004	1.37861 ± 0.0004	–	–	–
[2], x1 = 0.1939	1.39757 ± 0.00038	1.39278 ± 0.00038	1.38807 ± 0.00038	–	–	–
[2], x1 = 0.2938	1.40567 ± 0.00037	1.40095 ± 0.00037	1.39632 ± 0.00037	–	–	–
[2], x1 = 0.3998	1.41335 ± 0.00036	1.40869 ± 0.00036	1.40422 ± 0.00036	–	–	–
[2], x1 = 0.5028	1.42017 ± 0.00035	1.41551 ± 0.00035	1.41092 ± 0.00035	–	–	–
[2], x1 = 0.6154	1.42699 ± 0.00034	1.42236 ± 0.00034	1.41782 ± 0.00034	–	–	–
[2], x1 = 0.7207	1.43278 ± 0.00034	1.42826 ± 0.00034	1.4234 ± 0.0003	–	–	–
[2], x1 = 0.8326	1.43844 ± 0.00033	1.43358 ± 0.00033	1.42879 ± 0.00033	–	–	–
[2], x1 = 0.9404	1.44348 ± 0.00032	1.43846 ± 0.00032	1.43349 ± 0.00032	–	–	–
[2], x1 = 1	1.44617 ± 0.00032	1.44123 ± 0.00032	1.43614 ± 0.00032	–	–	–

C[N+](=O)[O-] [nitromethane] + ClC(Cl)Cl
Conditions	refractive index, 298.15 K	refractive index, 308.15 K	refractive index, 318.15 K	speed of sound, 298.15 K [m/s]	speed of sound, 308.15 K [m/s]	speed of sound, 318.15 K [m/s]
[1], x2 = 0	–	–	–	1321.3 ± 1.8	1281.8 ± 1.8	1242.4 ± 1.7
[1], x2 = 0.1197	–	–	–	1253.7 ± 1.7	1215.5 ± 1.7	1177.5 ± 1.7
[1], x2 = 0.1772	–	–	–	1225 ± 1.7	1187.5 ± 1.7	1150.1 ± 1.7
[1], x2 = 0.3007	–	–	–	1171.2 ± 1.7	1134.6 ± 1.7	1098.1 ± 1.7
[1], x2 = 0.4009	–	–	–	1133.6 ± 1.6	1097.8 ± 1.6	1062 ± 1.6
[1], x2 = 0.5	–	–	–	1101.3 ± 1.6	1065.9 ± 1.6	1030.7 ± 1.6
[1], x2 = 0.5978	–	–	–	1072.5 ± 1.6	1037.7 ± 1.6	1002.9 ± 1.6
[1], x2 = 0.7194	–	–	–	1041.5 ± 1.6	1007.1 ± 1.6	972.74 ± 1.6
[1], x2 = 0.8607	–	–	–	1010.4 ± 1.5	976.31 ± 1.5	942.3 ± 1.5
[1], x2 = 0.9562	–	–	–	993.45 ± 1.5	959.49 ± 1.5	925.65 ± 1.5
[2], x2 = 0	1.37951 ± 0.0004	1.37501 ± 0.0004	1.37016 ± 0.0004	–	–	–
[2], x2 = 0.1197	1.39001 ± 0.0004	1.38474 ± 0.0004	1.37896 ± 0.0004	–	–	–
[2], x2 = 0.1772	1.39474 ± 0.0004	1.38937 ± 0.0004	1.3835 ± 0.0004	–	–	–
[2], x2 = 0.3007	1.40415 ± 0.00039	1.39828 ± 0.00039	1.39227 ± 0.00039	–	–	–
[2], x2 = 0.4009	1.41107 ± 0.00039	1.40509 ± 0.00039	1.39897 ± 0.00039	–	–	–
[2], x2 = 0.5	1.41742 ± 0.00039	1.41126 ± 0.00039	1.40531 ± 0.00039	–	–	–
[2], x2 = 0.5978	1.42317 ± 0.00038	1.41698 ± 0.00038	1.41097 ± 0.00038	–	–	–
[2], x2 = 0.7194	1.42971 ± 0.00038	1.42362 ± 0.00038	1.41741 ± 0.00038	–	–	–
[2], x2 = 0.8607	1.4364 ± 0.00037	1.43035 ± 0.00037	1.42424 ± 0.00037	–	–	–
[2], x2 = 0.9562	1.44032 ± 0.00037	1.43408 ± 0.00037	1.42786 ± 0.00037	–	–	–

ClCCCCCl [1,4-dichlorobutane] + C[N+](=O)[O-]
Conditions	refractive index, 298.15 K	refractive index, 308.15 K	refractive index, 318.15 K	speed of sound, 298.15 K [m/s]	speed of sound, 308.15 K [m/s]	speed of sound, 318.15 K [m/s]
[1], x1 = 0.0825	–	–	–	1308.1 ± 1.7	1269.3 ± 1.7	1230.6 ± 1.7
[1], x1 = 0.1759	–	–	–	1298.3 ± 1.6	1260 ± 1.6	1221.8 ± 1.6
[1], x1 = 0.2825	–	–	–	1291.3 ± 1.5	1253.5 ± 1.5	1215.8 ± 1.5
[1], x1 = 0.3815	–	–	–	1287.2 ± 1.5	1249.9 ± 1.5	1212.7 ± 1.4
[1], x1 = 0.4815	–	–	–	1285 ± 1.4	1248 ± 1.4	1211.2 ± 1.4
[1], x1 = 0.5911	–	–	–	1284 ± 1.3	1247.3 ± 1.3	1210.8 ± 1.3
[1], x1 = 0.6898	–	–	–	1283.9 ± 1.3	1247.5 ± 1.3	1211.3 ± 1.3
[1], x1 = 0.8208	–	–	–	1284.6 ± 1.2	1248.6 ± 1.2	1212.8 ± 1.2
[1], x1 = 0.9262	–	–	–	1285.7 ± 1.2	1249.9 ± 1.2	1214.4 ± 1.2
[1], x1 = 1	–	–	–	1286.6 ± 1.2	1251 ± 1.2	1215.7 ± 1.2
[2], x1 = 0.0825	1.38965 ± 0.0004	1.38514 ± 0.0004	1.38078 ± 0.0004	–	–	–
[2], x1 = 0.1759	1.39985 ± 0.00038	1.39614 ± 0.00038	1.39174 ± 0.00038	–	–	–
[2], x1 = 0.2825	1.40987 ± 0.00037	1.40646 ± 0.00037	1.40219 ± 0.00037	–	–	–
[2], x1 = 0.3815	1.41799 ± 0.00036	1.41451 ± 0.00036	1.41005 ± 0.00036	–	–	–
[2], x1 = 0.4815	1.42515 ± 0.00035	1.42129 ± 0.00035	1.41679 ± 0.00035	–	–	–
[2], x1 = 0.5911	1.43204 ± 0.00034	1.4279 ± 0.0003	1.42357 ± 0.00034	–	–	–
[2], x1 = 0.6898	1.43765 ± 0.00033	1.43335 ± 0.00033	1.42901 ± 0.00033	–	–	–
[2], x1 = 0.8208	1.4443 ± 0.00032	1.43965 ± 0.00032	1.43512 ± 0.00032	–	–	–
[2], x1 = 0.9262	1.44906 ± 0.00032	1.44436 ± 0.00032	1.43974 ± 0.00032	–	–	–
[2], x1 = 1	1.45224 ± 0.00031	1.44756 ± 0.00031	1.44279 ± 0.00031	–	–	–

C[N+](=O)[O-] [nitromethane] + CCCCCCl
x2 = 0
Conditions	refractive index, 298.15 K	refractive index, 308.15 K	refractive index, 318.15 K	speed of sound, 298.15 K [m/s]	speed of sound, 308.15 K [m/s]	speed of sound, 318.15 K [m/s]
[1]	–	–	–	1321.7 ± 1.8	1282 ± 1.8	1242.6 ± 1.7
[2]	1.37954 ± 0.0004	1.3747 ± 0.0004	1.36996 ± 0.0004	–	–	–

CCCCCl [1-chlorobutane] + C[N+](=O)[O-]
x1 = 1
Conditions	refractive index, 298.15 K	refractive index, 308.15 K	refractive index, 318.15 K	speed of sound, 298.15 K [m/s]	speed of sound, 308.15 K [m/s]	speed of sound, 318.15 K [m/s]
[1]	–	–	–	1119 ± 1.2	1078 ± 1.2	1037.3 ± 1.2
[2]	1.39953 ± 0.00032	1.39413 ± 0.00032	1.38851 ± 0.00032	–	–	–

C[N+](=O)[O-] [nitromethane] + CC(Cl)(Cl)Cl
x2 = 0
Conditions	refractive index, 298.15 K	refractive index, 308.15 K	refractive index, 318.15 K	speed of sound, 298.15 K [m/s]	speed of sound, 308.15 K [m/s]	speed of sound, 318.15 K [m/s]
[1]	–	–	–	1321.6 ± 1.8	1281.9 ± 1.8	1242.5 ± 1.7
[2]	1.37949 ± 0.0004	1.37473 ± 0.0004	1.36995 ± 0.0004	–	–	–
